{"source": "patent US5254558A", "about": "“Substituted 1,3-diazines as leukocyte elastase inhibitors” (Imperial Chemical Industries PLC, priority 1991, dated 1993)", "key": {"[1]": {"system": "HLE", "test": "in vivo tests (Acute Lung Injury Model, Acute Hemorrhagic Assay)", "conditions": "basis for compounds of particular interest"}, "[2]": {"molecular_target": "T1, human leukocyte elastase (HLE) (Homo sapiens, UniProt P08246)", "T1 sequence (P08246 30-247 limits assumed)": "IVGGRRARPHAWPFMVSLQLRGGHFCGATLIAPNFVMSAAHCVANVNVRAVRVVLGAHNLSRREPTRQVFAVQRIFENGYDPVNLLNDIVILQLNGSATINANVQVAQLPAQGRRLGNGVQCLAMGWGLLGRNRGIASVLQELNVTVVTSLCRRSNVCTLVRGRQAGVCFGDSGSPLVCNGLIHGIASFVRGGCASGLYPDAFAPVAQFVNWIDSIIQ", "test": "Inhibition measurements: Ki against HLE on substrate methoxy-succinyl-alanyl-alanyl-prolyl-valine-p-nitroanilide", "type": "biochemical", "conditions": "read-out: Ki, dissociation constant of the complex of inhibitor with HLE", "protocol": "The potency of a Compound to act as an inhibitor of human leukocyte elastase (HLE) on the low molecular weight peptide substrate methoxy-succinyl-alanyl-alanyl-prolyl-valine-p-nitroanilide is determined as described in U.S. Pat. No. 4,910,190. The potency of an inhibitor is evaluated by obtaining a kinetic determination of the dissociation constant, Ki, of the complex formed from the interaction of the inhibitor with HLE. If a Compound is found to be a \"slow-binding\" inhibitor of HLE, special methods of analysis to accurately determine Ki values for the inhibition of HLE are carried out as described in U.S. Pat. No. 4,910,190. In general, the Ki values for Compounds of the invention which were tested are generally on the order of 10^-7 M or much less."}, "[3]": {"system": "human neutrophil elastase (HNE)", "test": "Acute Hemorrhagic Assay: lung hemorrhage after intratracheal HNE in hamsters", "type": "in vivo, hamster", "conditions": "2.5 mg/kg by mouth, male Syrian hamsters", "protocol": "This assay relies on monitoring only the amount of hemorrhage in the lung following intratracheal administration of human neutrophil elastase (HNE). Hemorrhage is quantified by disrupting erythrocytes recovered in lung lavage fluid and comparing that to dilutions of whole hamster blood. The screening protocol, similar to that described in Fletcher et al., American Review of Respiratory Disease (1990), 141, 672-677, is as follows. […] The compounds are then dosed by mouth to male Syrian hamsters at a fixed time, such as 30 or 90 min, prior to intratracheal administration of 50 μg/animal of HNE in 300 μL phosphate buffered saline (PBS) pH 7.4. Four hours enzyme administration, the animals are killed with an overdose of pentobarbital sodium, the thorax opened and the lungs and trachea removed. […] The recovered lavages are pooled, the volumes (about 5 mL) are recorded and the lavages stored at 4° C. until assayed. […] The optical densities (OD) of the disrupted lavages and blood samples are determined at 405 nm. The (μL blood equivalents)/(mL lavage) are determined by comparing the OD of the test samples with the OD of the standard curve prepared from whole hamster blood. The total μL equivalents of blood recovered is determined by multiplying recovered lavage volume by the (μL blood equivalents)/(mL lavage) for each sample. […]"}}}
{"smiles": "CC(C)C(NC(=O)Cn1c(-c2cccs2)ncc(N)c1=O)C(=O)C(F)(F)F", "note": "(centres unmarked) [Example 12, 2-[5-Amino-6-oxo-2-(2-thienyl)-1,6-dihydro-1-pyrimidinyl]-N-(3,3,3-trifluoro-1-isopropyl-2-oxopropyl)acetamide]", "values": [{"measurement": "activity in in vivo tests", "setting": "[1]", "result": "activity in in vivo tests"}]}
{"smiles": "CC(C)OC(=O)Nc1cnc(-c2cccs2)n(CC(=O)NC(C(=O)C(F)(F)F)C(C)C)c1=O", "note": "(centres unmarked) [Example 51]", "values": [{"measurement": "Ki", "setting": "[2]", "result": 27, "unit": "nM"}, {"measurement": "inhibition of hemorrhage", "setting": "[3]; 30 min prior to HNE", "result": "statistically significant inhibition of hemorrhage"}, {"measurement": "inhibition of hemorrhage", "setting": "[3]; 90 min prior to HNE", "result": "statistically significant inhibition of hemorrhage"}, {"measurement": "activity in in vivo tests", "setting": "[1]", "result": "activity in in vivo tests"}]}
{"smiles": "CCNc1cnc(-c2cccs2)n(CC(=O)NC(C(=O)C(F)(F)F)C(C)C)c1=O", "note": "(centres unmarked) [Example 82]", "values": [{"measurement": "activity in in vivo tests", "setting": "[1]", "result": "activity in in vivo tests"}]}
{"smiles": "CSC(=O)Nc1cnc(-c2ccccc2)n(CC(=O)NC(C(=O)C(F)(F)F)C(C)C)c1=O", "note": "(centres unmarked) [Example 100]", "values": [{"measurement": "activity in in vivo tests", "setting": "[1]", "result": "activity in in vivo tests"}]}
{"smiles": "CSC(=O)Nc1cnc(-c2ccc(F)cc2)n(CC(=O)NC(C(=O)C(F)(F)F)C(C)C)c1=O", "note": "(centres unmarked) [Example 102]", "values": [{"measurement": "activity in in vivo tests", "setting": "[1]", "result": "activity in in vivo tests"}]}
{"smiles": "CC(C)C(NC(=O)Cn1c(-c2cccs2)ncc(NC(=O)OCC(F)(F)F)c1=O)C(=O)C(F)(F)F", "note": "(centres unmarked) [Example 106]", "values": [{"measurement": "activity in in vivo tests", "setting": "[1]", "result": "activity in in vivo tests"}]}
{"smiles": "CC(C)C(NC(=O)Cn1c(-c2cccs2)ncc(NC=O)c1=O)C(=O)C(F)(F)F", "note": "(centres unmarked) [Example 157]", "values": [{"measurement": "activity in in vivo tests", "setting": "[1]", "result": "activity in in vivo tests"}]}
{"smiles": "CC(C)C(NC(=O)Cn1c(-c2ccccc2)ncc(NC=O)c1=O)C(=O)C(F)(F)F", "note": "(centres unmarked) [Example 159]", "values": [{"measurement": "activity in in vivo tests", "setting": "[1]", "result": "activity in in vivo tests"}]}
